# Measurements from patent publication US20220227707A1, “COMPOUNDS AND COMPOSITIONS FOR TREATING CONDITIONS ASSOCIATED WITH NLRP ACTIVITY” (Novartis AG, priority 2019, published 2022).
# Test system: IL-1β production in PMA-differentiated THP-1 cells
# Test: IL-1β production in PMA-differentiated THP-1 cells stimulated with gramicidin (hTHP-1 assay)
# Type: cell-based, human
# Settings: Average IC50, hTHP-1 assay containing 2% fetal bovine serum; Table 10, class symbols
# Experimental: Procedure 1: IL-1β Production in PMA-Differentiated THP-1 Cells Stimulated with Gramicidin
# THP-1 cells were purchased from the American Type Culture Collection and sub-cultured according to instructions from the supplier. Cells were cultured in complete RPMI 1640 (containing 10% heat inactivated FBS, penicillin (100 units/ml) and streptomycin (100 μg/ml)), and maintained in log phase prior to experimental setup. Prior to the experiment, compounds were dissolved in dimethyl sulfoxide (DMSO) to generate a 30 mM stock. The compound stock was first pre-diluted in DMSO to 3, 0.34, 0.042 and 0.0083 mM intermediate concentrations and subsequently spotted using Echo550 liquid handler into an empty 384-well assay plate to achieve desired final concentration (e.g. 100, 33, 11, 3.7, 1.2, 0.41, 0.14, 0.046, 0.015, 0.0051, 0.0017 μM). DMSO was backfilled in the plate to achieve a final DMSO assay concentration of 0.37%. The plate was then sealed and stored at room temperature until required.
# THP-1 cells were treated with PMA (Phorbol 12-myristate 13-acetate) (20 ng/ml) for 16-18 hours. On the day of the experiment the media was removed and adherent cells were detached with trypsin for 5 minutes. Cells were then harvested, washed with complete RPMI 1640, spun down, and resuspended in RPMI 1640 (containing 2% heat inactivated FBS, penicillin (100 units/ml) and streptomycin (100 μg/ml). The cells were plated in the 384-well assay plate containing the spotted compounds at a density of 50,000 cells/well (final assay volume 50 μl). Cells were incubated with compounds for 1 hour and then stimulated with gramicidin (5 μM) (Enzo) for 2 hours. Plates were then centrifuged at 340 g for 5 min. Cell free supernatant ([…]) was collected using a 96-channel PlateMaster (Gilson) and the production of IL-1β was evaluated by HTRF (cisbio). The plates were incubated for 18 h at 4° C. and read using the preset HTRF program (donor emission at 620 nm, acceptor emission at 668 nm) of the SpectraMax i3x spectrophotometer (Molecular Devices, software SoftMax 6). A vehicle only control and a dose titration of CRID3 (100-0.0017 μM) were run concurrently with each experiment.
# Procedure 2: […] Production in PMA-Differentiated THP-1 Cells Stimulated with Gramicidin
# THP-1 cells were purchased from the American Type Culture Collection and sub-cultured according to instructions from the supplier. Prior to experiments, cells were cultured in complete RPMI 1640 (containing 10% heat inactivated FBS, penicillin (100 units/ml) and streptomycin (100 μg/ml)), and maintained in log phase prior to experimental setup. Prior to the experiment THP-1 were treated with PMA (Phorbol 12-myristate 13-acetate) (20 ng/ml) for 16-18 hours. Compounds were dissolved in dimethyl sulfoxide (DMSO) to generate a 30 mM stock. On the day of the experiment the media was removed and adherent cells were detached with trypsin for 5 minutes. Cells were then harvested, washed with complete RPMI 1640, spun down, resuspended in RPMI 1640 (containing 2% heat inactivated FBS, penicillin (100 units/ml) and streptomycin (100 μg/ml). The cells were plated in a 384-well plate at a density of 50,000 cells/well (final assay volume 50 μl). Compounds were first dissolved in assay medium to obtain a 5× top concentration of 500 μM. 10 step dilutions (1:3) were then undertaken in assay medium containing 1.67% DMSO. 5× compound solutions were added to the culture medium to achieve desired final concentration (e.g. 100, 33, 11, 3.7, 1.2, 0.41, 0.14, 0.046, 0.015, 0.0051, 0.0017 μM). Final DMSO concentration was at 0.37%. Cells were incubated with compounds for 1 hour and then stimulated with gramicidin (5 μM) (Enzo) for 2 hours. Plates were then centrifuged at 340 g for 5 min. Cell free supernatant (40 μL) was collected using a 96-channel PlateMaster (Gilson) and the production of IL-1β was evaluated by HTRF (cisbio). A vehicle only control and a dose titration of CRID3 (100-0.0017 μM) were run concurrently with each experiment. […]
row,IC50,SMILES
1,1 to 5 µM,"CN(C)CCCS(N)(=O)=NC(=O)Nc1c2c(cc3c1CCC3)CCC2 (single isomer, unassigned) [Compound 142, 3-(dimethylamino)-N′-((1,2,3,5,6,7-hexahydro-s-indacen-4-yl)carbamoyl)propane-1-sulfonimidamide]"
2,1 to 5 µM,"CC(C)(O)c1ccc(CS(N)(=O)=NC(=O)Nc2c3c(cc4c2CCC4)CCC3)cc1 (single isomer, unassigned) [Compound 165a]"
3,5 to 30 µM,"CN(C)CCCS(N)(=O)=NC(=O)Nc1c2c(cc3c1CCC3)CCC2 (single isomer, unassigned) [Compound 143, 3-(dimethylamino)-N′-((1,2,3,5,6,7-hexahydro-s-indacen-4-yl)carbamoyl)propane-1-sulfonimidamide]"
4,5 to 30 µM,CC(CN(C)C)CS(N)(=O)=NC(=O)Nc1c2c(cc3c1CCC3)CCC2 (centres unmarked) [Compound 121]
5,0.04 to 0.2 µM,"CC(C)(O)c1ccc(CS(N)(=O)=NC(=O)Nc2c3c(cc4c2CCC4)CCC3)cc1 (single isomer, unassigned) [Compound 165b]"

# Same assay, conditions: Average IC50, hTHP-1 assay containing 2% fetal bovine serum; Table 10, numeric values
row,IC50,SMILES
1,> 30 µM,CC(C)c1cc(F)cc(C(C)C)c1CC(=O)N=S(N)(=O)CCCN(C)C (centres unmarked) [Compound 302]
2,> 30 µM,NS(=O)(=NC(=O)Nc1c2c(cc3c1CCC3)CCC2)C1CCCCC1 (centres unmarked) [Compound 148]
3,> 30 µM,CC1(S(N)(=O)=NC(=O)Nc2c3c(cc4c2CCC4)CCC3)CC1 (centres unmarked) [Compound 163]
4,> 30 µM,CN(C)CC1(S(N)(=O)=NC(=O)Nc2c3c(cc4c2CCC4)CCC3)CC1 (centres unmarked) [Compound 159]
5,> 30 µM,"CN(C)S(C)(=O)=NC(=O)Nc1c2c(cc3c1CCC3)CCC2 (single isomer, unassigned) [Compound 102, N′-((1,2,3,5,6,7-hexahydro-s-indacen-4-yl)carbamoyl)-N,N-dimethylmethanesulfonimidamide]"
6,> 30 µM,"NS(=O)(=NC(=O)Nc1c2c(cc3c1CCC3)CCC2)C1CCC1 (single isomer, unassigned) [Compound 146]"

# Same assay, conditions: Homo sapiens, THP-1, Average IC50, hTHP-1 assay containing 2% fetal bovine serum; Table 3B, class symbols
row,IC50,SMILES
1,5 to 30 µM,"CN(C)S(N)(=O)=NC(=O)Nc1c2c(cc3c1CCC3)CCC2 (centres unmarked) [Compound 101B, 3-[amino(dimethylamino)oxo-lambda6-sulfanylidene]-1-(1,2,3,5,6,7-hexahydro-s-indacen-4-yl)urea]"
2,5 to 30 µM,"CC(C)c1cc(C#N)cc(C(C)C)c1CC(=O)NS(=O)(=O)N1CCCCC1 [Compound 201B, 2-(4-cyano-2,6-diisopropylphenyl)-N-(piperidin-1-ylsulfonyl)acetamide]"

# Same assay, conditions: Homo sapiens, THP-1, Average IC50, hTHP-1 assay containing 2% fetal bovine serum; Table 10, class symbols
row,IC50,SMILES
1,0.2 to 1 µM,"CC(C)(O)c1ccc(CS(N)(=O)=NC(=O)Nc2c3c(cc4c2CCC4)CCC3)cc1 (centres unmarked) [Compound 165, N′-((1,2,3,5,6,7-hexahydro-s-indacen-4-yl)carbamoyl)-1-(4-(2-hydroxypropan-2-yl)phenyl)methane-sulfonimidamide]"
2,5 to 30 µM,"NS(=O)(=NC(=O)Nc1c2c(cc3c1CCC3)CCC2)C1Cc2ccccc2C1 (centres unmarked) [Compound 139, N′-((1,2,3,5,6,7-hexahydro-s-indacen-4-yl)carbamoy1)-2,3-dihydro-1H-indene-2-sulfonimidamide]"
3,5 to 30 µM,CN(C)CCCS(N)(=O)=NC(=O)Nc1c2c(cc3c1CCC3)CCC2 (centres unmarked) [Compound 141]

# Further lines, the compound ahead of its results:
row,SMILES,IC50
1,"CN1CCC(CS(N)(=O)=NC(=O)Nc2c3c(cc4c2CCC4)CCC3)C1 (centres unmarked) [Compound 112, N′-((1,2,3,5,6,7-hexahydro-s-indacen-4-yl)carbamoy1)-1-(1-methylpyrrolidin-3-yl) methane-sulfonimidamide]",1 to 5 µM
2,CC(C)c1cccc(C(C)C)c1NC(=O)NS(=O)(=O)CC(O)c1ccsc1 (centres unmarked) [Compound 402],5 to 30 µM
3,CC(C)c1cc(F)cc(C(C)C)c1CC(=O)N=S(N)(=O)C1CC1 (centres unmarked) [Compound 307],0.008 to 0.04 µM
4,"COC(=O)CCS(=O)(=O)NC(=O)Cc1c(C(C)C)cc(F)cc1C(C)C [Compound 520, methyl 3-(N-(2-(4-fluoro-2,6-diisopropylphenyl)acetyl)sulfamoyl) propanoate]",1 to 5 µM

# Same assay, conditions: Homo sapiens, THP-1, Average IC50, hTHP-1 assay containing 2% fetal bovine serum; Table 10, numeric values
row,IC50,SMILES
1,> 30 µM,"CN(C)Cc1ccc(CS(N)(=O)=NC(=O)Nc2c3c(cc4c2CCC4)CCC3)cc1 (single isomer, unassigned) [Compound 105]"
2,> 30 µM,"CC(CN(C)C)CS(N)(=O)=NC(=O)Nc1c2c(cc3c1CCC3)CCC2 (centres unmarked) [Compound 126, 3-(dimethylamino)-N′-((1,2,3,5,6,7-hexahydro-s-indacen-4-yl)carbamoyl)-2-methylpropane-1-sulfonimidamide]"
3,> 30 µM,"CC(CN(C)C)CS(N)(=O)=NC(=O)Nc1c2c(cc3c1CCC3)CCC2 (single isomer, unassigned) [Compound 124, 3-(dimethylamino)-N′-((1,2,3,5,6,7-hexahydro-s-indacen-4-yl)carbamoyl)-2-methylpropane-1-sulfonimidamide]"
4,> 30 µM,CN(C)S(C)(=O)=NC(=O)Nc1c2c(cc3c1CCC3)CCC2 (centres unmarked) [Compound 107]
5,> 30 µM,CS(=O)(=NC(=O)Nc1c2c(cc3c1CCC3)CCC2)NC(=O)c1ccccc1 (centres unmarked) [Compound 108]
6,> 30 µM,"CNS(C)(=O)=NC(=O)Nc1c2c(cc3c1CCC3)CCC2 (centres unmarked) [Compound 103, N′-((1,2,3,5,6,7-hexahydro-s-indacen-4-yl)carbamoy1)-N-methylmethane-sulfonimidamide]"

# Continued, compound first:
row,SMILES,IC50
1,CC(C)c1cc(F)cc(C(C)C)c1CC(=O)NS(=O)(=O)Cc1cccc(C(=O)O)c1 [Compound 510],> 100 µM
2,CC(C)c1cc(F)cc(C(C)C)c1NC(=O)NS(=O)(=O)C1CC1 [Compound 401],31.5 µM
3,"NS(=O)(=NC(=O)Nc1c2c(cc3c1CCC3)CCC2)C1CCC1 (centres unmarked) [Compound 149, N′-((1,2,3,5,6,7-hexahydro-s-indacen-4-yl)carbamoyl) cyclobutane-sulfonimidamide]",> 30 µM
4,CC(C)c1cc(F)cc(C(C)C)c1CC(=O)NS(=O)(=O)CCCc1ccccc1 [Compound 509],> 30 µM
5,"NS(=O)(=NC(=O)Nc1c2c(cc3c1CCC3)CCC2)C1CC1 (centres unmarked) [Compound 156, N′-((1,2,3,5,6,7-hexahydro-s-indacen-4-yl)carbamoyl) cyclopropane-sulfonimidamide]",> 30 µM
6,"CN(C)CCCC(=O)NS(C)(=O)=NC(=O)Nc1c2c(cc3c1CCC3)CCC2 (single isomer, unassigned) [Compound 118, 4-(dimethylamino)-N—(N-((1,2,3,5,6,7-hexahydro-s-indacen-4-yl)carbamoyl)-S-methylsulfonimidoyl)butanamide]",> 30 µM
7,"NS(=O)(=NC(=O)Nc1c2c(cc3c1CCC3)CCC2)C1CCC1 (single isomer, unassigned) [Compound 145]",> 30 µM
8,CC(C)c1cc(F)cc(C(C)C)c1CC(=O)NS(=O)(=O)Cc1ccccc1C(=O)O [Compound 517],> 100 µM
9,"CN1CCC(CS(N)(=O)=NC(=O)Nc2c3c(cc4c2CCC4)CCC3)C1 (single isomer, unassigned) [Compound 113]",> 30 µM
10,CC1(S(N)(=O)=NC(=O)Nc2c3c(cc4c2CCC4)CCC3)CC1 (centres unmarked) [Compound 161],> 30 µM
11,CC(C)c1cc(F)cc(C(C)C)c1CC(=O)NS(=O)(=O)CCc1ccccc1 [Compound 516],> 30 µM
12,COC(=O)c1cccc(CS(=O)(=O)NC(=O)Cc2c(C(C)C)cc(F)cc2C(C)C)c1 [Compound 514],> 100 µM
